Experimental data published in US11534377B2, “Hair growth agent” (KOBAYASHI PHARMACEUTICAL CO., LTD., priority 2016, dated 2022).

Assays:
[1] = test system: transplanted mice (hair follicles of haired mice transplanted into the back of nude mice); assay: Hair shaft growth in nude mice transplanted with hair follicles of haired mice (Example 1); assay type: in vivo; conditions: for Hair shaft growth rate: topical 4 times per day
Experimental: Hair follicles (surgically prepared) of haired mice were transplanted into the back of nude mice (from Sankyo Labo Service Corporation, Inc.) to produce transplanted mice manipulated such that each hair can be distinguished and a plurality of hair cycles can be observed. First, a 50% ethanol aqueous solution (12.5 μl, not containing the agent) was applied to the transplanted mice 4 times per day during new hair growth in the first hair cycle to obtain reference data of a hair cycle. After the hair had shed following the end of the first hair cycle, a 50% ethanol aqueous solution (12.5 μl) containing a predetermined amount of the agent was applied to the mice 4 times per day to obtain data on effects of the agent. After the hair had shed following the end of the second hair cycle, a 50% ethanol aqueous solution (12.5 μl) containing the agent in the same amount as that in the second hair cycle was applied to the mice in a similar manner to the second hair cycle to obtain reproducibility data on effects of the agent. As the agent, D-chiro-inositol (from Wako Pure Chemical Industries Ltd.) and its stereoisomers as chiro-inositol, L-chiro-inositol (from Tokyo Chemical Industry Co., Ltd.), myo-inositol (from Wako Pure Chemical Industries Ltd.), allo-inositol (cis-1,2,3,4-trans-5,6-cyclohexaneheaxol) (from Tokyo Chemical Industry Co., Ltd.), epi-inositol (cis-1,2,3,4,5-trans-6-cyclohexanehexaol) (from Tokyo Chemical Industry Co., Ltd.), muco-inositol (cis-1,2,4,5-trans-3,6-cyclohexanehexaol) (from Tokyo Chemical Industry Co., Ltd.), and scyllo-inositol (cis-1,3,5-trans-2,4,6-cyclohexanehexaol) (from Tokyo Chemical Industry Co., Ltd.) were used. For each agent solution, the lengths of hair shafts were measured every 2 to 3 days, an average length of hair shafts that changed day by day was plotted as one dot at each time point in a graph, and a similar plotting was repeated for 3 to 4 mice. The results were shown in Tables 1 to 14 and FIGS. 1 to 14.

C3H/He mice = assay: New hair growth promoting activity in telogen-phase mice after hair removal (Example 3); assay type: in vivo; conditions: 5 wt % in 50% ethanol, once/day 100 μl
Source text: The hair follicle that produces a hair shaft is the only organ known to repeat growth and regression over the entire life. Such regular growth and regression are divided into the anagen phase, the catagen phase, and the telogen phase of a hair cycle. The body hair of the back of C3H/He mice is bound to be in the telogen phase 45 to 95 days after birth, and thus an extremely long telogen phase-bound period is observed compared with common mice, such as C57BL/6N mice, whose hair cycle of the body hair of the back lasts about 21 days in total for the anagen phase, the catagen phase, and the telogen phase. […] Therefore, by using C3H/He mice at 45 to 90 days after birth, new hair growth promoting activity can be evaluated. […]
The application was performed for two groups (test solution-applied group and negative control group (50% ethanol-applied group)), where each group consisted of five mice. On the basis of new hair growth score criteria (Table 15) according to appearance changes in a portion of the applied region that leaves the telogen phase and enters a regeneration phase, the degree of new hair growth in the applied region was quantified (range of 1 to 10 in which new hair growth scores concerning two items are summed) over time on day 0, 4, 5, 6, 7, 10, 11, 12, 13, 14, 17, 18, 19, 20, and 21 after hair removal. […]

[2] = 1 wt %, second hair cycle vs first hair cycle (vehicle)
[3] = 1 wt %, third hair cycle vs first hair cycle (vehicle)
[4] = 5 wt %, second hair cycle vs first hair cycle (vehicle)
[5] = 5 wt %, third hair cycle vs first hair cycle (vehicle)
[6] = 10 wt %, second hair cycle vs first hair cycle (vehicle)
[7] = 10 wt %, third hair cycle vs first hair cycle (vehicle)

With `OC1C(O)C(O)C(O)C(O)C1O` [D-chiro-inositol] the “Hair shaft growth rate and hair shaft maximum length, difference from the reference data” value ([1]; 0.01 wt %) was “marginally significant differences”, the “Hair shaft growth rate” value ([1]; 0.01 wt % in 50% ethanol, second hair cycle) was 0.30 ± 0.03 mm/day and the “Hair shaft growth rate” value ([1]; 0.01 wt % in 50% ethanol, third hair cycle (reproducibility)) was 0.40 ± 0.06 mm/day. For the same compound, the “Hair shaft maximum length” value ([1]; 0.01 wt %, second hair cycle) was 4.8 ± 0.4 mm, the “Hair shaft maximum length” value ([1]; 0.01 wt %, third hair cycle (reproducibility)) was 4.7 ± 0.3 mm and the “Hair shaft growth rate” value ([1]; 0.1 wt % in 50% ethanol, second hair cycle) was 0.30 ± 0.03 mm/day. For the same compound, the “Hair shaft growth rate” value ([1]; 0.1 wt % in 50% ethanol, third hair cycle (reproducibility)) was 0.40 ± 0.06 mm/day, the Hair growth activity ([1]; 0.1 wt %, growth rate not significantly different, maximum length increased significantly in third hair cycle) was “hair growth activity was shown” and the “Hair shaft maximum length” value ([1]; 0.1 wt %, second hair cycle) was 4.7 ± 0.4 mm. The “Hair shaft maximum length relative to reference data” value ([1]; 0.1 wt %, second hair cycle vs first hair cycle (vehicle)) was 101%, the “Hair shaft maximum length” value ([1]; 0.1 wt %, third hair cycle (reproducibility)) was 4.8 ± 0.4 mm and the “Hair shaft maximum length relative to reference data” value ([1]; 0.1 wt %, third hair cycle vs first hair cycle (vehicle)) was 105%. The “Hair shaft growth rate” value ([1]; 1 wt % in 50% ethanol, second hair cycle) was 0.47 ± 0.01 mm/day, the “Hair shaft growth rate” value ([1]; 1 wt % in 50% ethanol, third hair cycle (reproducibility)) was 0.48 ± 0.04 mm/day and the “Hair shaft maximum length” value ([1]; 1 wt %, second hair cycle) was 5.7 ± 0.4 mm. For the same compound, the “Hair shaft growth rate relative to reference data” value [1, 2] was 121%, the “Hair shaft maximum length relative to reference data” value [1, 2] was 110% and the “Hair shaft maximum length” value ([1]; 1 wt %, third hair cycle (reproducibility)) was 6.0 ± 0.4 mm. For the same compound, the “Hair shaft growth rate relative to reference data” value [1, 3] was 123%, the “Hair shaft maximum length relative to reference data” value [1, 3] was 116% and the “Hair shaft growth rate” value ([1]; 5 wt % in 50% ethanol, second hair cycle) was 0.46 ± 0.04 mm/day. For the same compound, the “Hair shaft growth rate” value ([1]; 5 wt % in 50% ethanol, third hair cycle (reproducibility)) was 0.49 ± 0.07 mm/day, the “Hair shaft maximum length” value ([1]; 5 wt %, second hair cycle) was 5.1 ± 0.3 mm and the “Hair shaft growth rate relative to reference data” value [1, 4] was 128%. For the same compound, the “Hair shaft maximum length relative to reference data” value [1, 4] was 116%, the “Hair shaft maximum length” value ([1]; 5 wt %, third hair cycle (reproducibility)) was 5.1 ± 0.4 mm and the “Hair shaft growth rate relative to reference data” value [1, 5] was 136%. The “Hair shaft maximum length relative to reference data” value [1, 5] was 116%, the “Hair shaft growth rate” value ([1]; 10 wt % in 50% ethanol, second hair cycle) was 0.46 ± 0.06 mm/day and the “Hair shaft growth rate” value ([1]; 10 wt % in 50% ethanol, third hair cycle (reproducibility)) was 0.63 ± 0.05 mm/day. The “Hair shaft growth rate and hair shaft maximum length relative to the reference data” value ([1]; 10 wt %, 5 wt %, or 1 wt % as the agent) was “increased significantly”, the “Hair shaft maximum length” value ([1]; 10 wt %, second hair cycle) was 5.6 ± 0.5 mm and the “Hair shaft growth rate relative to reference data” value [1, 6] was 154%. The “Hair shaft maximum length relative to reference data” value [1, 6] was 142%, the “Hair shaft maximum length” value ([1]; 10 wt %, third hair cycle (reproducibility)) was 5.9 ± 0.5 mm and the “Hair shaft growth rate relative to reference data” value [1, 7] was 210%. For the same compound, the “Hair shaft maximum length relative to reference data” value [1, 7] was 149%, the “Average timing of new hair growth (new hair growth score reached 1 or more), number of days after hair removal” value (C3H/He mice; FIG. 17, negative control day 9) was 4 days and the “New hair growth score vs negative control group” value (C3H/He mice; day 21 after hair removal, FIG. 16, P<0.05) was “significantly higher”.
